# Ends that are not written are not given here.
# How the values were obtained:
# Erk 1 and 2 = experiment: Western blotting analysis of Erk 1 and 2 phosphorylation in UMR-106 cells; type: cell-based, rat
# Protocol: Western blotting analysis. […] After 48 h cells were treated with 10 nM 1,25(OH)2D3 for the indicated time. […] Cell debris were removed by centrifugation and equal amount of protein was run on SDS-PAGE. Separated proteins were transferred to nitrocellulose membrane and levels of MNAR, ERK, and p-ERK were determined by western blotting analysis.
# osteocalcin = experiment: Quantitative PCR (TaqMan) analysis of osteocalcin in UMR-106 cells; type: cell-based, rat; conditions: 100 nM, 24 h
# Protocol: (§1) Quantitative PCR (TaqMan) analysis. […] Following transfection cells were cultured in media supplemented with 2% charcoal stripped FBS. 16 hours after the transfection cells were treated with 100 nM 1,25(OH)2 Vit.D3 for 24 or 48 hours. Cells were lysed and total RNA was isolated using RNeasy Kit (Quiagen). Quantitative PCR (TaqMan) was performed to determine osteocalcin levels in UMR-106 cells and alkaline phosphatase levels in ROS 17/2.8 cells.
# alkaline phosphatase = experiment: Quantitative PCR (TaqMan) analysis of alkaline phosphatase in ROS 17/2.8 cells; type: cell-based, rat; conditions: overexpression of MNAR, 100 nM, 48 h
# Protocol: as §1
# PI3-K = PI3-K activity in p85 immunoprecipitates from MCF-7 cells; type: cell-based
# Protocol: Transfections and cell lysates preparation. […] Cell debris was removed by centrifugation.
# Immunoprecipitation and kinase assays.
# For PI3-K reaction, p85 was immunoprecipitated from cell lysates as described above. Kinase activity in the immunoprecipitate was detected using PI3-Kinase ELISA kit from Echelon Biosciences according to the manufacture's instructions. Briefly, reaction was run in 50 μl volume by adding 5 μl of 10× reaction buffer and 10 μl of PI(4,5)P2 substrate solution (10 μM) to the p85 immunoprecipitate. After the PI3-K reactions was complete, reaction products are first mixed and incubated with a PI(3,4,5)P3 detecting antibody, then added to the PI(3,4,5)P3-coated microplate for competitive binding. A peroxidase-linked secondary detection reagent and colorirnetric detection was used to detect PI(3,4,5)P3 detecting antibody binding to the plate. The colorimetric signal was inversely proportional to the amount of PI(3,4,5)P3 produced by PI 3-K activity.
# Akt [1] = experiment: Akt kinase activity in immunoprecipitate (GSK-3 substrate) from MCF-7 cells; type: cell-based; conditions: MNAR overexpression, estradiol for 20 min
# Protocol: Transfections and cell lysates preparation. […] Cell debris was removed by centrifugation. […] Briefly, […] of GSK-3 fusion protein was added to the Akt-immunoprecipitate as a substrate. Kinase reaction was run in a reaction buffer supplied by the manufacturer. The level of p-GSK-3 produced in the kinase reaction was analyzed by western blotting analysis.
# Akt [2] = experiment: Western blotting analysis of phosphorylated Akt in MCF-7 cells; type: cell-based
# Protocol: Transfections and cell lysates preparation. […] Cell debris was removed by centrifugation. […] Equal amount of protein from cell lysates was run on SDS-PAGE. Separated proteins were transferred to nitrocellulose membrane and levels of Akt and p-Akt were determined by western blotting analysis. Akt antibody was from Cell Signaling (anti-Akt cat#9272, anti-p-Akt cat# 9271).
# GST-VDR-LBD = target: T1, GST-VDR-LBD (Homo sapiens, UniProt P11473); experiment: ELISA-based VDR-MNAR interaction analysis; type: binding; conditions: GST-VDR-LBD preincubated with vehicle or 1 μM 1,25(OH)2D3; peptide 50 μM
# T1 construct: made in house; host or cells: E. coli BL-21
# T1 sequence (P11473 110-427): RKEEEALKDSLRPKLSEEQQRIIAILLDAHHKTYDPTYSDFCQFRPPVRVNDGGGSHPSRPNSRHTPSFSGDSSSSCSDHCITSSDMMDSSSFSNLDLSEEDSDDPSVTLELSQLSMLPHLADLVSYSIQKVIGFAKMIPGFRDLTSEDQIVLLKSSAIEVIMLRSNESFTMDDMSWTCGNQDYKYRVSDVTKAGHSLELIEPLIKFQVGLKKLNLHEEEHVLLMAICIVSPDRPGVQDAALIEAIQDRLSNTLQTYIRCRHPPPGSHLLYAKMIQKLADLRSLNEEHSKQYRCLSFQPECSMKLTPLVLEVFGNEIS
# Protocol: ELISA-based VDR-MNAR interaction analysis. A rapid, nonisotopic ELISA-type method was used for characterization of VDR-MNAR interactions. Biotinylated peptides corresponding to different MNAR's LXXLL motifs (designated 1-9, sequentially from the most N-terminal motif) were synthesized and immobilized on a Reacti-Bind™ NeutrAvidin™-coated microplate (Pierce Biotechnology, Rockford, Ill.). The microplate was washed twice with binding buffer (50 mM Tris-HCL, pH 8.0, 150 mM NaCl, 1 mM DTT, 1 mM EDTA, 0.01% NP-40, and 0.01% BSA). Peptides were diluted in 100 μl binding buffer to a final concentration of 50 μM and incubated with the Reacti-Bind™ NeutrAvidin™ coated microplate for 1 hour at room temperature, washed 4 times with the binding buffer. GST-VDR-LBD, preincubated with vehicle or 1 μM 1,25(OH)2D3, was allowed to interact with the immobilized peptide corresponding to one of each of the MNAR LXXLL motifs for 2 hours at room temperature. The plate was washed 4 times with binding buffer and incubated with anti-GST antibodies fused to HRP (Sigma, St. Louis, Mo.) for 1 h in binding buffer and washed 4 more times. SuperSignal® ELISA Pico Chemiluminescent Substrate (Pierce Biotechnology, Rockford, Ill.) was used to detect antigen/antibody complex, signal was read using a Wallac Victor2 1420 Multilabel Counter (PerkinElmer Lifesciences, Boston, Mass.).
# [3] = target: T2, GST-VDR ligand binding domain fusion protein (Homo sapiens, UniProt P11473); experiment: GST pull-down interaction analysis; conditions: 35S-radiolabeled full length MNAR; absence or presence of 100 nM 1,25(OH)2 Vit. D3
# T2 construct: made in house; host or cells: E. coli BL-21 (GST-VDR-LBD); Promega TNT Quick Coupled Transcription/Translation System (MNAR)
# Protocol: GST pull-down interaction analysis. A GST fusion to the ligand binding domain of VDR, amino acids 110-427, termed GST-VDR-LBD, was expressed in BL-21 cells and bound to glutathione-Sepharose 4B (Amersham Biosciences, Piscataway, NJ). Wild type MNAR was transcribed/translated and ^35S radiolabeled using Promega TNT Quick Coupled Transcription/Translation System (Madison, Wis.) and incubated for 1 hour at room temperature with GST-VDR-LBD fusion protein bound to glutathione-Sepharose 4B in the absence or presence of 100 nM 1,25(OH)2 Vit. D3 in binding buffer (50 mM Tris pH 8.0, 150 mM NaCl, 1 mM DTT, 1 mM PMSF, 1 mM EDTA, 0.05% NP-40, 1× Protease cocktail). Beads were then washed 4 times with the binding buffer and bound proteins were eluted by addition of SDS buffer and analyzed by SDS-PAGE and autoradiography.
# T2 sequence (Q8IZL8 whole entry E896G/T1069P partner, one chain of several, the tested form may be a part): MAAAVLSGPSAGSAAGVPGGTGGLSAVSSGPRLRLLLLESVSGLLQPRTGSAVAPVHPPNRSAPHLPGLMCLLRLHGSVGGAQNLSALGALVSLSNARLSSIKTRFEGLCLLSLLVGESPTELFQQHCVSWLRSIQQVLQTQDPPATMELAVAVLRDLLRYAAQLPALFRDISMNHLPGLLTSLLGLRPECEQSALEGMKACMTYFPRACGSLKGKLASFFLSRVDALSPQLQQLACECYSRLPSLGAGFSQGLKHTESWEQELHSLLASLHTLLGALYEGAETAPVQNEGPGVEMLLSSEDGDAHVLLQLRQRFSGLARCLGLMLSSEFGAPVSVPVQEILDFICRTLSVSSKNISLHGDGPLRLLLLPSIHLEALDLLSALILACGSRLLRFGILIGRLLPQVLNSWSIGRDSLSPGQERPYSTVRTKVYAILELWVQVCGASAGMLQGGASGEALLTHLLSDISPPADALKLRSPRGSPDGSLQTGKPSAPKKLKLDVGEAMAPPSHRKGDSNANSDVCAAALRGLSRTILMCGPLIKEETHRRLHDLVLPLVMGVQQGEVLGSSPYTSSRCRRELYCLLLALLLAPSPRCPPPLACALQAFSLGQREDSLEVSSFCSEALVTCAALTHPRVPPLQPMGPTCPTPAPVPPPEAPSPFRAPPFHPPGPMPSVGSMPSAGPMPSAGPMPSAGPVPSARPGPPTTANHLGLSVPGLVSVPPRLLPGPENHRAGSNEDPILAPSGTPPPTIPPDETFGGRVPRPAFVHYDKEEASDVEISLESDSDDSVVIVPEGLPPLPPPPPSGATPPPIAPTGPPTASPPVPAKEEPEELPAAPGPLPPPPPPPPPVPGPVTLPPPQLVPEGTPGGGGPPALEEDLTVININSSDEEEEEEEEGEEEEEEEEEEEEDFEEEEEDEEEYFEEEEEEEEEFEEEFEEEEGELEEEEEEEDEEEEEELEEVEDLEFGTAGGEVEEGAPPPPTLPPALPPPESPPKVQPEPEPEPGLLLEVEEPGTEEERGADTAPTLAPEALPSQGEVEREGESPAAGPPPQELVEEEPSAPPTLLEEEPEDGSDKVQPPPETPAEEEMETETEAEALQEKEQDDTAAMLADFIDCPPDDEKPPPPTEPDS
compound,measurement,setting,value
"C=C1/C(=C\C=C2/CCC[C@]3(C)[C@@H]([C@H](C)CCCC(C)(C)O)CC[C@@H]23)C[C@@H](O)C[C@@H]1O [1,25(OH)2 Vit D3, 1,25 dihydroxy vitamin D3]",Erk phosphorylation,"Erk 1 and 2; MNAR overexpression, 10 nM",dramatic increase in Erk phosphorylation
same,levels of phosphorylated Erk 1 and 2,"Erk 1 and 2; absence of MNAR (control vector), 10 nM for 10 or 20 min",augmentation of the levels of phosphorylated Erk 1 and 2
same,"1,25(OH)2 Vit D3-stimulated levels of osteocalcin",osteocalcin; MNAR overexpression,strong potentiation
same,level of osteocalcin expression,osteocalcin; control plasmid,did not affect
same,induction of AP expression level,alkaline phosphatase,strongly enhanced
C[C@]12CC[C@@H]3c4ccc(O)cc4C[C@@H](CCCCCCCCC[S+]([O-])CCCC(F)(F)C(F)(F)F)[C@H]3[C@@H]1CC[C@@H]2O (stereo partly shown) [ICI 182 780],effect on estradiol activation of PI3-K activity,PI3-K; MCF-7 cells treated with 10 nM estradiol for 20 min,blocked
"C[C@]12CC[C@@H]3c4ccc(O)cc4CC[C@H]3[C@@H]1CC[C@@H]2O [estradiol, 17β-estradiol]",estradiol induced Akt activation (GSK-3 phosphorylation),Akt [1],stimulates
same,estrogen-dependant activation of PI3-K,"PI3-K; MCF-7 cells, MNAR overexpression, 10 nM estradiol for 20 min",increased
same,PI3-kinase activity,"PI3-K; MCF-7 cells, 10 nM for 20 min",stimulation of the PI3-kinase activity
same,phospho-Akt level,"Akt [2]; MCF-7 cells transfected with MNAR-expressing plasmid vs empty vector, 10 nM estradiol for 20 min",strong increase in phospho-Akt level
same,level of phospho-Akt,"Akt [2]; MCF-7 cells, 10 nM for 20 min",increased the level of phospho-Akt
"MNAR LXXLL motif #5: biotinylated peptide corresponding to the fifth LXXLL motif of MNAR, counted from the most N-terminal motif (LPGLLTSLL; also: biotinylated, site not given here)",VDR ligand binding domain interaction with immobilized MNAR LXXLL peptide,GST-VDR-LBD,ligand-dependently interacted
"MNAR: modulator of nongenomic activity of estrogen receptor, scaffold protein, GenBank AF547989",MNAR interaction with VDR-LBD,[3],directly interacts with VDR-LBD in a ligand-dependent manner

# Source: patent publication US20050202515A1, “Functional method for generating or screening for ligands which modulate steroid hormone receptors” (Wyeth, priority 2004, published 2005)
